Laboratory results published in patent US6992079B2, “Substituted 11-phenyl-dibenzazepine compounds useful for the treatment or prevention of diseases characterized by abnormal cell proliferation” (President Fellows of Harvard College, priority 1997, dated 2006).
Read-outs that look alike come from different tables or passages of the source.

Experiments:
[1] = system: NIH 3T3 mouse fibroblast cells; assay: Mitogenic assay (mitogen-induced cell proliferation); format: cell-based; details: Mus musculus, NIH3T3, 10 μM compound
[2] = system: squamous cell carcinoma (KLN-205) cells; assay: Tumor growth in murine squamous cell carcinoma model; format: in vivo, mouse; details: KLN-205; subcutaneous injection or oral administration of 80 mg/kg/day for 30 days
[3] = system: H209 small lung cell carcinoma; assay: Mouse xenograft tumor growth; format: in vivo, SCID mice
[4] = system: ROP-62; format: cell-based
[5] = system: ROP-92; format: cell-based
[6] = system: HCT-116; assay: In-Vitro Testing SRB panel: Colon Cancer; format: cell-based
[7] = system: HT29; assay: In-Vitro Testing SRB panel: Colon Cancer; format: cell-based
[8] = system: KM12; assay: In-Vitro Testing SRB panel: Colon Cancer; format: cell-based
[9] = system: SNB-19; assay: In-Vitro Testing SRB panel: CNS Cancer; format: cell-based
[10] = system: SNB-75; assay: In-Vitro Testing SRB panel: CNS Cancer; format: cell-based
[11] = system: M14; assay: In-Vitro Testing SRB panel: Melanoma; format: cell-based
[12] = system: SK-MEL-5; assay: In-Vitro Testing SRB panel: Melanoma; format: cell-based
[13] = system: UACC-257; assay: In-Vitro Testing SRB panel: Melanoma; format: cell-based
[14] = system: IGROV1; assay: In-Vitro Testing SRB panel: Ovarian Cancer; format: cell-based
[15] = system: OVCAR-5; assay: In-Vitro Testing SRB panel: Ovarian Cancer; format: cell-based
[16] = system: ACHN; assay: In-Vitro Testing SRB panel: Renal Cancer; format: cell-based
[17] = system: RXF 393; assay: In-Vitro Testing SRB panel: Renal Cancer; format: cell-based
[18] = system: MDA-MB-231/ATCC; assay: In-Vitro Testing SRB panel: Breast Cancer; format: cell-based
[19] = system: HS 578T; assay: In-Vitro Testing SRB panel: Breast Cancer; format: cell-based; details: HS 578T
[20] = Homo sapiens, read-out: LC50 (the source's name)

COc1ccc2c(c1)CN(C(=O)c1ccc([N+](=O)[O-])cc1)c1ccc(Cl)cc1C2c1ccccc1Cl (stereo not drawn) [Compound 30]
inhibition at 10 µM [1]: 99% | tumor growth [2]: significantly inhibited tumor growth | tumor growth [3]: showed inhibition of tumor growth | GI50 ([4]; Homo sapiens): > 100 µM | CC50 ([4]; Homo sapiens, ROP-62, read-out: LC50 (the source's name)): > 100 µM | TGI ([4]; ROP-62): >1.00E−04 Molar | Percent Growth ([4]; ROP-62, Log10 concentration −4.0 Molar): 50% | Percent Growth ([4]; ROP-62, Log10 concentration −5.0 Molar): 67% | Percent Growth ([4]; ROP-62, Log10 concentration −6.0 Molar): 95% | Percent Growth ([4]; ROP-62, Log10 concentration −7.0 Molar): 102% | Percent Growth ([4]; ROP-62, Log10 concentration −8.0 Molar): 96% | GI50 ([5]; Homo sapiens): > 100 µM | CC50 ([5]; Homo sapiens, ROP-92, read-out: LC50 (the source's name)): > 100 µM | TGI ([5]; ROP-92): >1.00E−04 Molar | Percent Growth ([5]; ROP-92, Log10 concentration −4.0 Molar): 58% | Percent Growth ([5]; ROP-92, Log10 concentration −5.0 Molar): 69% | Percent Growth ([5]; ROP-92, Log10 concentration −6.0 Molar): 93% | Percent Growth ([5]; ROP-92, Log10 concentration −7.0 Molar): 102% | Percent Growth ([5]; ROP-92, Log10 concentration −8.0 Molar): 91% | TGI ([6]; HCT-116): 1.00E−04 Molar | Percent Growth ([6]; HCT-116, Log10 concentration −4.0 Molar): 22% | Percent Growth ([6]; HCT-116, Log10 concentration −5.0 Molar): 17% | Percent Growth ([6]; HCT-116, Log10 concentration −6.0 Molar): 63% | Percent Growth ([6]; HCT-116, Log10 concentration −7.0 Molar): 90% | Percent Growth ([6]; HCT-116, Log10 concentration −8.0 Molar): 97% | GI50 ([6]; Homo sapiens, HCT-116): 1.91 µM | CC50 ([6]; Homo sapiens, HCT-116, read-out: LC50 (the source's name)): > 100 µM | TGI ([7]; HT29): >1.00E−04 Molar | Percent Growth ([7]; HT29, Log10 concentration −4.0 Molar): 20% | Percent Growth ([7]; HT29, Log10 concentration −5.0 Molar): 22% | Percent Growth ([7]; HT29, Log10 concentration −6.0 Molar): 70% | Percent Growth ([7]; HT29, Log10 concentration −7.0 Molar): 93% | Percent Growth ([7]; HT29, Log10 concentration −8.0 Molar): 91% | GI50 ([7]; Homo sapiens, HT-29): 2.63 µM | CC50 ([7]; Homo sapiens, HT-29, HT29, read-out: LC50 (the source's name)): > 100 µM | GI50 ([8]; Homo sapiens, KM12): 3.06 µM | CC50 ([8]; Homo sapiens, KM12, RM12, read-out: LC50 (the source's name)): > 100 µM | TGI ([8]; RM12): >1.00E−04 Molar | Percent Growth ([8]; RM12, Log10 concentration −4.0 Molar): 36% | Percent Growth ([8]; RM12, Log10 concentration −5.0 Molar): 41% | Percent Growth ([8]; RM12, Log10 concentration −6.0 Molar): 59% | Percent Growth ([8]; RM12, Log10 concentration −7.0 Molar): 91% | Percent Growth ([8]; RM12, Log10 concentration −8.0 Molar): 95% | GI50 ([9]; Homo sapiens, SNB-19): 8.22 µM | CC50 ([9]; Homo sapiens, SNB-19, read-out: LC50 (the source's name)): > 100 µM | TGI ([9]; SNB-19): >1.00E−04 Molar | Percent Growth ([9]; SNB-19, Log10 concentration −4.0 Molar): 37% | Percent Growth ([9]; SNB-19, Log10 concentration −5.0 Molar): 47% | Percent Growth ([9]; SNB-19, Log10 concentration −6.0 Molar): 86% | Percent Growth ([9]; SNB-19, Log10 concentration −7.0 Molar): 90% | Percent Growth ([9]; SNB-19, Log10 concentration −8.0 Molar): 95% | GI50 ([10]; Homo sapiens, SNB-75): 4.52 µM | CC50 ([10]; Homo sapiens, SNB-75, read-out: LC50 (the source's name)): > 100 µM | TGI ([10]; SNB-75): >1.00E−04 Molar | Percent Growth ([10]; SNB-75, Log10 concentration −4.0 Molar): 25% | Percent Growth ([10]; SNB-75, Log10 concentration −5.0 Molar): 32% | Percent Growth ([10]; SNB-75, Log10 concentration −6.0 Molar): 83% | Percent Growth ([10]; SNB-75, Log10 concentration −7.0 Molar): 103% | Percent Growth ([10]; SNB-75, Log10 concentration −8.0 Molar): 99% | GI50 ([11]; Homo sapiens, M14): 0.045 µM | CC50 ([11]; Homo sapiens, M14, read-out: LC50 (the source's name)): > 100 µM | TGI ([11]; M14): >1.00E−04 Molar | Percent Growth ([11]; M14, Log10 concentration −4.0 Molar): 30% | Percent Growth ([11]; M14, Log10 concentration −5.0 Molar): 37% | Percent Growth ([11]; M14, Log10 concentration −6.0 Molar): 75% | Percent Growth ([11]; M14, Log10 concentration −7.0 Molar): 93% | Percent Growth ([11]; M14, Log10 concentration −8.0 Molar): 99% | GI50 ([12]; Homo sapiens, SK-MEL-5): 3.95 µM | CC50 ([12]; Homo sapiens, SK-MEL-5, read-out: LC50 (the source's name)): > 100 µM | TGI ([12]; SK-MEL-5): >1.00E−04 Molar | Percent Growth ([12]; SK-MEL-5, Log10 concentration −4.0 Molar): 12% | Percent Growth ([12]; SK-MEL-5, Log10 concentration −5.0 Molar): 26% | Percent Growth ([12]; SK-MEL-5, Log10 concentration −6.0 Molar): 85% | Percent Growth ([12]; SK-MEL-5, Log10 concentration −7.0 Molar): 90% | Percent Growth ([12]; SK-MEL-5, Log10 concentration −8.0 Molar): 93% | GI50 ([13]; Homo sapiens, UACC-257): 1.86 µM | CC50 ([13]; Homo sapiens, UACC-257, read-out: LC50 (the source's name)): > 100 µM | TGI ([13]; UACC-257): >1.00E−04 Molar | Percent Growth ([13]; UACC-257, Log10 concentration −4.0 Molar): 13% | Percent Growth ([13]; UACC-257, Log10 concentration −5.0 Molar): 20% | Percent Growth ([13]; UACC-257, Log10 concentration −6.0 Molar): 61% | Percent Growth ([13]; UACC-257, Log10 concentration −7.0 Molar): 91% | Percent Growth ([13]; UACC-257, Log10 concentration −8.0 Molar): 99% | GI50 ([14]; Homo sapiens, IGROV-1): 6.35 µM | CC50 ([14]; Homo sapiens, IGROV-1, IGROV1, read-out: LC50 (the source's name)): > 100 µM | TGI ([14]; IGROV1): >1.00E−04 Molar | Percent Growth ([14]; IGROV1, Log10 concentration −4.0 Molar): 36% | Percent Growth ([14]; IGROV1, Log10 concentration −5.0 Molar): 41% | Percent Growth ([14]; IGROV1, Log10 concentration −6.0 Molar): 86% | Percent Growth ([14]; IGROV1, Log10 concentration −7.0 Molar): 97% | Percent Growth ([14]; IGROV1, Log10 concentration −8.0 Molar): 97% | GI50 ([15]; Homo sapiens, OVCAR-5): > 100 µM | CC50 ([15]; Homo sapiens, OVCAR-5, read-out: LC50 (the source's name)): > 100 µM | TGI ([15]; OVCAR-5): >1.00E−04 Molar | Percent Growth ([15]; OVCAR-5, Log10 concentration −4.0 Molar): 78% | Percent Growth ([15]; OVCAR-5, Log10 concentration −5.0 Molar): 86% | Percent Growth ([15]; OVCAR-5, Log10 concentration −6.0 Molar): 98% | Percent Growth ([15]; OVCAR-5, Log10 concentration −7.0 Molar): 106% | Percent Growth ([15]; OVCAR-5, Log10 concentration −8.0 Molar): 102% | TGI [16]: >1.00E−04 Molar | CC50 [16, 20]: > 100 µM | Percent Growth ([16]; Log10 concentration −4.0 Molar): 53% | Percent Growth ([16]; Log10 concentration −5.0 Molar): 50% | Percent Growth ([16]; Log10 concentration −6.0 Molar): 94% | Percent Growth ([16]; Log10 concentration −7.0 Molar): 108% | Percent Growth ([16]; Log10 concentration −8.0 Molar): 107% | GI50 ([17]; Homo sapiens, RXF 393): 3.4 µM | CC50 ([17]; Homo sapiens, RXF 393, read-out: LC50 (the source's name)): > 100 µM | TGI ([17]; RXF 393): >1.00E−04 Molar | Percent Growth ([17]; RXF 393, Log10 concentration −4.0 Molar): 20% | Percent Growth ([17]; RXF 393, Log10 concentration −5.0 Molar): 23% | Percent Growth ([17]; RXF 393, Log10 concentration −6.0 Molar): 81% | Percent Growth ([17]; RXF 393, Log10 concentration −7.0 Molar): 97% | Percent Growth ([17]; RXF 393, Log10 concentration −8.0 Molar): 90% | GI50 ([18]; Homo sapiens, MDA-MB-231): > 100 µM | CC50 ([18]; Homo sapiens, MDA-MB-231/ATCC, read-out: LC50 (the source's name)): > 100 µM | TGI ([18]; MDA-MB-231/ATCC): >1.00E−04 Molar | Percent Growth ([18]; MDA-MB-231/ATCC, Log10 concentration −4.0 Molar): 54% | Percent Growth ([18]; MDA-MB-231/ATCC, Log10 concentration −5.0 Molar): 54% | Percent Growth ([18]; MDA-MB-231/ATCC, Log10 concentration −6.0 Molar): 89% | Percent Growth ([18]; MDA-MB-231/ATCC, Log10 concentration −7.0 Molar): 92% | Percent Growth ([18]; MDA-MB-231/ATCC, Log10 concentration −8.0 Molar): 106% | TGI [19]: >1.00E−04 Molar | Percent Growth ([19]; Log10 concentration −4.0 Molar): 11% | Percent Growth ([19]; Log10 concentration −5.0 Molar): 51% | Percent Growth ([19]; Log10 concentration −6.0 Molar): 30% | Percent Growth ([19]; Log10 concentration −7.0 Molar): 91% | Percent Growth ([19]; Log10 concentration −8.0 Molar): 87% | CC50 [19, 20]: > 100 µM
